Read-outs that look alike come from different tables or passages of the source.
Legend:
human JAK3 = human JAK3 (Homo sapiens (Human), UniProt P52333); test: JAK3 kinase inhibitory activity, ADP Glo kinase assay; format: biochemical; conditions: recombinant purified human JAK3, ATP 5 uM, Poly(Glu4,Tyr1) peptide, 1 hour 30° C.
Procedure: JAK3 and BTK kinases inhibitory activities were measured for the compounds prepared in the Examples through in vitro analysis on the ADP Glow (Glo) platform.
Specifically, the inhibitory activities against JAK3 and BTK kinase were measured using a JAK3 kinase assay kit (Promega, V9441) and a BTK kinase assay kit (Promega, V9071) which were purchased from Promega. […] After incubation (30° C.) for 1 hour, equivalent volume (25 uL per reaction) of ADP Glo was added and incubated (30° C.) for 40 minutes at room temperature. Then, a kinase detection reagent (50 uL per reaction) was added and incubated (30° C.) for 30 minutes at room temperature. The kinase activity was measured by chemiluminescence according to the instructions of ADP Glow kinase assay kit, and the inhibitory activity of the compounds according to the present disclosure was calculated.

human BTK = human BTK (Homo sapiens (Human), UniProt Q06187); test: BTK kinase inhibitory activity, ADP Glo kinase assay
Chain of human BTK (Q06187 whole entry): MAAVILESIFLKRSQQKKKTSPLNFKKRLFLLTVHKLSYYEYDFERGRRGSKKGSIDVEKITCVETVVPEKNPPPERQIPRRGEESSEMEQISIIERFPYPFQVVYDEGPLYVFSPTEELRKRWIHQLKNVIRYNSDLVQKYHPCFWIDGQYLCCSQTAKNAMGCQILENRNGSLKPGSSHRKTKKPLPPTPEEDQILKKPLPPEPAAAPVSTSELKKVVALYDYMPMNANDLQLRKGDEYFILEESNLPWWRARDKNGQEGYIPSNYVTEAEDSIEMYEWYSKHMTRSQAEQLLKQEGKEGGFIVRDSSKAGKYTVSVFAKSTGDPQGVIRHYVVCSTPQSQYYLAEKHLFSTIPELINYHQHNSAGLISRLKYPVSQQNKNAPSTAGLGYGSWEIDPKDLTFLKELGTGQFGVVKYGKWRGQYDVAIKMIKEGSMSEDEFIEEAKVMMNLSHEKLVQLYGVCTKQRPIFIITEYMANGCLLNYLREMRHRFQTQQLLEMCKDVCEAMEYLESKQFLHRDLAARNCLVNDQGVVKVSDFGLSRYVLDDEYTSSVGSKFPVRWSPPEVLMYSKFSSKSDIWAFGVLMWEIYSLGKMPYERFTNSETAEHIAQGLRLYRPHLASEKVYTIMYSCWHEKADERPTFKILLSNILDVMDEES

[1] = read-out: BTK IC50, recombinant purified human BTK, ATP 10 uM, Poly(Glu4,Tyr1) peptide, 1 hour 30° C.

Chain of human JAK3 (P52333 whole entry): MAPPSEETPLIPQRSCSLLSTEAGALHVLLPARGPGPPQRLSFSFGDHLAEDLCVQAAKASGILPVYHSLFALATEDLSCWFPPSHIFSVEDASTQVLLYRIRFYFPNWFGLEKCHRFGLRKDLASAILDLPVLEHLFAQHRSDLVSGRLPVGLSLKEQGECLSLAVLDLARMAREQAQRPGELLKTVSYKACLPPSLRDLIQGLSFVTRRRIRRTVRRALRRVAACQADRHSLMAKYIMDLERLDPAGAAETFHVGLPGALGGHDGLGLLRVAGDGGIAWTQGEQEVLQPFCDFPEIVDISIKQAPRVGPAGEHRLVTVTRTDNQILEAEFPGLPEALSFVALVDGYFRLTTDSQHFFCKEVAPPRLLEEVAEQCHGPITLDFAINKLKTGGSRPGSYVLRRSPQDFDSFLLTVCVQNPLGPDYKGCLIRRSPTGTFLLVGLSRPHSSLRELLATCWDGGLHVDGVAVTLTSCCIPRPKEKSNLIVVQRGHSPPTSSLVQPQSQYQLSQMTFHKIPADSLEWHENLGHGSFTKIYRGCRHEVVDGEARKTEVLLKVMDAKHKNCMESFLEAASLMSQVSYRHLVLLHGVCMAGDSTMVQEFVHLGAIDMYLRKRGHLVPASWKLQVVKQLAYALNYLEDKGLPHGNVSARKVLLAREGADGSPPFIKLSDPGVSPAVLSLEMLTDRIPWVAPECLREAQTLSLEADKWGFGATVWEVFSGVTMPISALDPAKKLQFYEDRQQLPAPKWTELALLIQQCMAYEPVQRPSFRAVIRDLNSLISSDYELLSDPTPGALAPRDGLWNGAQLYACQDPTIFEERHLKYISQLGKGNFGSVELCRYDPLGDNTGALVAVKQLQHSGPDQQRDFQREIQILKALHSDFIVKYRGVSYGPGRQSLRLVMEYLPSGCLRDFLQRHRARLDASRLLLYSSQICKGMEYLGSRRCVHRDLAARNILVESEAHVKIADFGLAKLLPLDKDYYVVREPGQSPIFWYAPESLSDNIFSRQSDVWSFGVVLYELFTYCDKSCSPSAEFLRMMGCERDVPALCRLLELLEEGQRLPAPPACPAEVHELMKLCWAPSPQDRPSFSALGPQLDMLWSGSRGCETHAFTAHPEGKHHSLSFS

| Structure (SMILES) | IC50 (human JAK3) [nM] | IC50 (human BTK) [nM] | IC50 (human BTK; [1]) [nM] | BTK IC50 (human BTK; recombinant purified human BTK, ATP 10 uM, Poly(Glu4,Tyr1) peptide, 1 hour 30° C.) |
| --- | --- | --- | --- | --- |
| C=CC(=O)N1CC[C@@H](F)[C@H](Oc2nc(Nc3cnn(CC(F)F)c3)nc3[nH]ccc23)C1 (racemic) [Example 2, 1-(trans-3-((2-((1-(2,2-difluoroethyl)-1H-pyrazol-4-yl)amino)-7H-pyrrolo[2,3-d]pyrimidin-4-yl)oxy)-4-fluoropiperidin-1-yl)prop-2-en-1-one] | 0.3 | 2.5 |  |  |
| C=CC(=O)N1CC[C@@H](F)[C@H](Oc2nc(Nc3cnn(C4CC4)c3)nc3[nH]cc(Cl)c23)C1 (racemic) [Example 10, 1-(trans-3-((5-chloro-2-((1-cyclopropyl-1H-pyrazol-4-yl)amino)-7H-pyrrolo[2,3-d]pyrimidin-4-yl)oxy)-4-fluoropiperidin-1-yl)prop-2-en-1-one] | 0.4 | 2.8 |  |  |
| C=CC(=O)N1CC[C@@H](F)[C@H](Oc2nc(Nc3cnn(CC)c3)nc3[nH]cc(C#N)c23)C1 (racemic) [Example 12, 4-((trans-1-acryloyl-4-fluoropiperidin-3-yl)oxy)-2-((1-ethyl-1H-pyrazol-4-yl)amino)-7H-pyrrolo[2,3-d]pyrimidine-5-carbonitrile] | 0.2 | 1.3 |  |  |
| C=CC(=O)N1CC[C@@H](F)[C@H](Oc2nc(Nc3cnn(C4CC4)c3)nc3[nH]cc(C#N)c23)C1 (racemic) [Example 13, 4-((trans-1-acryloyl-4-fluoropiperidin-3-yl)oxy)-2-((1-cyclopropyl-1H-pyrazol-4-yl)amino)-7H-pyrrolo[2,3-d]pyrimidine-5-carbonitrile] | 0.3 | 1.1 |  |  |
| C=CC(=O)N1CC[C@H](F)[C@H](Oc2nc(Nc3cnn(CC(F)F)c3)nc3[nH]cc(F)c23)C1 (racemic) [Example 16, 1-(cis-3-((2-((1-(2,2-difluoroethyl)-1H-pyrazol-4-yl)amino)-5-fluoro-7H-pyrrolo[2,3-d]pyrimidin-4-yl)oxy)-4-fluoropiperidin-1-yl)prop-2-en-1-one] | 0.6 | 5.9 |  |  |
| C=CC(=O)N1CC[C@H](F)[C@H](Oc2nc(Nc3cnn(CC(F)F)c3)nc3[nH]cc(C)c23)C1 (racemic) [Example 18, 1-(cis-3-((2-((1-(2,2-difluoroethyl)-1H-pyrazol-4-yl)amino)-5-methyl-7H-pyrrolo[2,3-d]pyrimidin-4-yl)oxy)-4-fluoropiperidin-1-yl)prop-2-en-1-one] | 0.7 | 7 |  |  |
| C=CC(=O)N1CC[C@@H](F)[C@H](Oc2nc(Nc3cnoc3)nc3[nH]ccc23)C1 (racemic) [Example 23, 1-(trans-4-fluoro-3-((2-(isoxazol-4-ylamino)-7H-pyrrolo[2,3-d]pyrimidin-4-yl)oxy)piperidin-1-yl)prop-2-en-1-one] | 0.7 | 11.6 |  |  |
| C=CC(=O)N1CC[C@@H](F)[C@@H](Oc2nc(Nc3cnn(CC(F)F)c3)nc3[nH]ccc23)C1 [Example 6, 1-((3S,4R)-3-((2-((1-(2,2-difluoroethyl)-1H-pyrazol-4-yl)amino)-7H-pyrrolo[2,3-d]pyrimidin-4-yl)oxy)-4-fluoropiperidin-1-yl)prop-2-en-1-one] | 0.2 |  | 1.5 |  |
| C=CC(=O)N1CC[C@@H](F)[C@@H](Oc2nc(Nc3cc(C)ns3)nc3[nH]ccc23)C1 [Example 7, 1-((3S,4R)-4-fluoro-3-((2-((3-methylisothiazol-5-yl)amino)-7H-pyrrolo[2,3-d]pyrimidin-4-yl)oxy)piperidin-1-yl)prop-2-en-1-one] | 0.2 |  | 1.3 |  |
| C=CC(=O)N1CC[C@@H](F)[C@@H](Oc2nc(Nc3cnn(C4CC4)c3)nc3[nH]ccc23)C1 [Example 8, 1-((3S,4R)-3-((2-((1-cyclopropyl-1H-pyrazol-4-yl)amino)-7H-pyrrolo[2,3-d]pyrimidin-4-yl)oxy)-4-fluoropiperidin-1-yl)prop-2-en-1-one] | 0.2 |  | 1.4 |  |
| C=CC(=O)N1CC[C@@H](F)[C@@H](Oc2nc(Nc3cnn(CC)c3)nc3[nH]cc(C)c23)C1 [Example 19, 1-((3S,4R)-3-((2-((1-ethyl-1H-pyrazol-4-yl)amino)-5-methyl-7H-pyrrolo[2,3-d]pyrimidin-4-yl)oxy)-4-fluoropiperidin-1-yl)prop-2-en-1-one] | 0.4 |  | 3.4 |  |
| C=CC(=O)N1CC[C@@H](F)[C@@H](Oc2nc(Nc3cnn(CC(F)F)c3)nc3[nH]cc(C)c23)C1 [Example 20, 1-((3S,4R)-3-((2-((1-(2,2-difluoroethyl)-1H-pyrazol-4-yl)amino)-5-methyl-7H-pyrrolo[2,3-d]pyrimidin-4-yl)oxy)-4-fluoropiperidin-1-yl)prop-2-en-1-one] | 0.4 |  | 4.5 |  |
| C=CC(=O)N1CC[C@@H](F)[C@@H](Oc2nc(Nc3cc(C)ns3)nc3[nH]cc(C)c23)C1 [Example 21, 1-((3S,4R)-4-fluoro-3-((5-methyl-2-((3-methylisothiazol-5-yl)amino)-7H-pyrrolo[2,3-d]pyrimidin-4-yl)oxy)piperidin-1-yl)prop-2-en-1-one] | 0.2 |  | 1.5 |  |
| C=CC(=O)N1CC[C@@H](F)[C@@H](Oc2nc(Nc3cnn(C4CC4)c3)nc3[nH]cc(C)c23)C1 [Example 22, 1-((3S,4R)-3-(2-((1-cyclopropyl-1H-pyrazol-4-yl)amino)-5-methyl-7H-pyrrolo[2,3-d]pyrimidin-4-yloxy)-4-fluoropiperidin-1-yl)prop-2-en-1-one] | 0.4 |  | 3.6 |  |
| C=CC(=O)N1CC[C@@H](F)[C@H](Oc2nc(Nc3cnn(CC)c3)nc3[nH]ccc23)C1 [Example 24, 1-((3R,4R)-3-((2-((1-ethyl-1H-pyrazol-4-yl)amino)-7H-pyrrolo[2,3-d]pyrimidin-4-yl)oxy)-4-fluoropiperidin-1-yl)prop-2-en-1-one] | 5.9 |  | ~400 |  |
| C=CC(=O)N1CC[C@@H](F)[C@@H](Oc2nc(Nc3cnn(CC)c3)nc3[nH]cc(Cl)c23)C1 [Example 26, 1-((3S,4R)-3-((5-chloro-2-((1-ethyl-1H-pyrazol-4-yl)amino)-7H-pyrrolo[2,3-d]pyrimidin-4-yl)oxy)-4-fluoropiperidin-1-yl)prop-2-en-1-one] | 0.2 |  | 2 |  |
| C=CC(=O)N1CC[C@@H](F)[C@@H](Oc2nc(Nc3cnn(CC)c3)nc3[nH]cc(F)c23)C1 [Example 27, 1-((3S,4R)-3-((2-((1-ethyl-1H-pyrazol-4-yl)amino)-5-fluoro-7H-pyrrolo[2,3-d]pyrimidin-4-yl)oxy)-4-fluoropiperidin-1-yl)prop-2-en-1-one] | 2 |  | 2.5 |  |
| C=CC(=O)N1CC[C@H](F)[C@H](Oc2nc(Nc3cnn(CC)c3)nc3[nH]ccc23)C1 [Example 28, 1-((3R,4S)-3-((2-((1-ethyl-1H-pyrazol-4-yl)amino)-7H-pyrrolo[2,3-d]pyrimidin-4-yl)oxy)-4-fluoropiperidin-1-yl)prop-2-en-1-one] | 15.5 |  | > 400 |  |
| C=CC(=O)N1CC[C@H](F)[C@H](Oc2nc(Nc3cnoc3)nc3[nH]ccc23)C1 [Example 29] | 152 |  | > 400 |  |
| C=CC(=O)N1CC[C@@H](F)[C@@H](Oc2nc(Nc3cnn(CCO)c3)nc3[nH]ccc23)C1 [Example 30, 1-((3S,4R)-4-fluoro-3-((2-((1-(2-hydroxyethyl)-1H-pyrazol-4-yl)amino)-7H-pyrrolo[2,3-d]pyrimidin-4-yl)oxy)piperidin-1-yl)prop-2-en-1-one] | 0.3 |  | 2.4 |  |
| C=CC(=O)N1CC[C@H](F)[C@H](Oc2nc(Nc3ccc(N4CCOCC4)cc3)nc3[nH]ccc23)C1 [Example 31, 1-((3R,4S)-4-fluoro-3-((2-((4-morpholinophenyl)amino)-7H-pyrrolo[2,3-d]pyrimidin-4-yl)oxy)piperidin-1-yl)prop-2-en-1-one] | 206 |  |  | No activity |
| C=CC(=O)N1CC[C@H](F)[C@H](Oc2nc(Nc3cc(C)ns3)nc3[nH]ccc23)C1 [Example 32, 1-((3R,4S)-4-fluoro-3-((2-((3-methylisothiazol-5-yl)amino)-7H-pyrrolo[2,3-d]pyrimidin-4-yl)oxy)piperidin-1-yl)prop-2-en-1-one] | 83.6 |  | > 400 |  |
| C=CC(=O)N1CC[C@H](F)[C@H](Oc2nc(Nc3cnn(C4CCOCC4)c3)nc3[nH]ccc23)C1 [Example 33, 1-((3R,4S)-4-fluoro-3-((2-((1-(tetrahydro-2H-pyran-4-yl)-1H-pyrazol-4-yl)amino)-7H-pyrrolo[2,3-d]pyrimidin-4-yl)oxy)piperidin-1-yl)prop-2-en-1-one] | 9 |  | > 80 |  |
| C=CC(=O)N1CC[C@H](F)[C@H](Oc2nc(Nc3cnn(C4CC4)c3)nc3[nH]ccc23)C1 [Example 35, 1-((3R,4S)-3-((2-((1-cyclopropyl-1H-pyrazol-4-yl)amino)-7H-pyrrolo[2,3-d]pyrimidin-4-yl)oxy)-4-fluoropiperidin-1-yl)prop-2-en-1-one] | 51.9 |  |  |  |
| C=CC(=O)N1CC[C@@H](F)[C@@H](Oc2nc(Nc3cnn(C4CCNCC4)c3)nc3[nH]ccc23)C1 [Example 36, 1-((3S,4R)-4-fluoro-3-((2-((1-(piperidin-4-yl)-1H-pyrazol-4-yl)amino)-7H-pyrrolo[2,3-d]pyrimidin-4-yl)oxy)piperidin-1-yl)prop-2-en-1-one] | 0.8 |  |  |  |

— patent publication US11339167B2, “Substituted piperidines as kinase inhibitors” (Daewoong Pharmaceutical Co., Ltd., priority 2017, dated 2022)
